In this assay the target is T1, STAT3 (Homo sapiens, UniProt P40763).
T1 construct: Recombinant human STAT3 protein (Abnova, cat no. H00006774-P01)
The assay is described as follows: intrinsic fluorescence quenching titration (ex […] nm, em […] nm). The format is binding.

Results on one compound are retold here after article PMC8396041, “A Michael Acceptor Analogue, SKSI-0412, Down-Regulates Inflammation and Proliferation Factors through Suppressing Signal Transducer and Activator of Transcription 3 Signaling in IL-17A-Induced Human Keratinocyte” (International Journal of Molecular Sciences, 2021).

The term Kd denotes the constant that tells how readily two partners part at equilibrium. Higher therefore signals a looser complex.

T1 sequence (P40763 2-770): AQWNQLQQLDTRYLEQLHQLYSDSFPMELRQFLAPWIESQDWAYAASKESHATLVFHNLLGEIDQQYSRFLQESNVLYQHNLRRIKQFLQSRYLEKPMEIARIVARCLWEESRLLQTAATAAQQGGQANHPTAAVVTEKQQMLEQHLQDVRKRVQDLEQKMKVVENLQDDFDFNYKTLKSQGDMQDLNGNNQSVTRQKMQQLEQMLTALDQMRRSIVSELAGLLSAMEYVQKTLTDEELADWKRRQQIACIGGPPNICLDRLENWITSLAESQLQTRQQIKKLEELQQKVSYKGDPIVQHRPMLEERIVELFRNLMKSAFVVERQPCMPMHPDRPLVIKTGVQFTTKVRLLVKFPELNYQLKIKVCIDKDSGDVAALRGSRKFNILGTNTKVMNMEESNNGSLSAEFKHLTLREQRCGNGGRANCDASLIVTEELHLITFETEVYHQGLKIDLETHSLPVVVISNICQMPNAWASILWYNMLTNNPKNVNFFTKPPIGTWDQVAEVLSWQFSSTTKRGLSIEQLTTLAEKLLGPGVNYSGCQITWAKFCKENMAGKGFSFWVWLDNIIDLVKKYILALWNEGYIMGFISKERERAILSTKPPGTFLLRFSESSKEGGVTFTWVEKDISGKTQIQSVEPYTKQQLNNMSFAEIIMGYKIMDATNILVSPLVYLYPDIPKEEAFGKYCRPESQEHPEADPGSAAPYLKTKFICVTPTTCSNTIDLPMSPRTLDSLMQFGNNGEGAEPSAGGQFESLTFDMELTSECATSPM

`C=C(C(=O)c1ccc2c(c1)C=CC(C)(C)O2)c1ccc(OC)c(OC)c1` [compound 4, 2-(3,4-Dimethoxyphenyl)-1-(2,2-Dimethyl-2H-Chromen-6-yl)Prop-2-en-1-One] registered a Kd of 26.8 µM.
